± gives the standard deviation of the averaged measurements.
Columns and labels:
[1] = compound: CC[C@@H](C(=O)[C@@H](C)[C@@H](O)[C@H](C)[C@@H]1O[C@@H]([C@@H](CC)C(=O)O)CC[C@@H]1C)[C@H]1O[C@]2(C=C[C@@H](O)[C@]3(CC[C@@](C)([C@H]4CC[C@](O)(CC)[C@H](C)O4)O3)O2)[C@H](C)C[C@@H]1C [SALINOMYCIN]; test: surviving fraction relative to DMSO-only wells; higher = less growth inhibition; conditions: exposure time: 5 days
How it was run: (§1)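 Viability values are CellTiter-Glo luminescence readings, given as surviving fraction against the median of DMSO-only wells. The readings were taken after 10 minutes at room temperature, following five days of continuous exposure to inhibitors at 0.5, 1, 5, 10, 50, 100, 500 and 1000 nM that began 24 hours after log-phase tumour cell lines were seeded at 250–500 cells per well in 384-well plates. Every line was screened three times and kept only if replicate Pearson r >0.7 and median Z' >0.3.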

[2] = compound: CS(=O)(=O)CCNCc1ccc(-c2ccc3ncnc(Nc4ccc(OCc5cccc(F)c5)c(Cl)c4)c3c2)o1 [LAPATINIB]; test: as above; conditions: exposure time: 5 days
How it was run: as §1

Test System	surviving fraction ([1]; 0.5 nM)	surviving fraction ([1]; 1 nM)	surviving fraction ([1]; 5 nM)	surviving fraction ([1]; 10 nM)	surviving fraction ([1]; 50 nM)	surviving fraction ([1]; 100 nM)	surviving fraction ([1]; 500 nM)	surviving fraction ([1]; 1000 nM)	surviving fraction ([2]; 0.5 nM)	surviving fraction ([2]; 1 nM)	surviving fraction ([2]; 5 nM)	surviving fraction ([2]; 10 nM)	surviving fraction ([2]; 50 nM)	surviving fraction ([2]; 100 nM)	surviving fraction ([2]; 500 nM)	surviving fraction ([2]; 1000 nM)
HMT3552 BREAST	1.07	1	1.07	1.11	1.13	1.05	0.801	0.728	1.03 ± 0.033	1.02 ± 0.073	1.06 ± 0.026	1.04 ± 0.075	1.02 ± 0.014	1.05 ± 0.083	0.861 ± 0.12	0.944 ± 0.074
HS578T BREAST	0.874 ± 0.12	0.894 ± 0.036	0.993 ± 0.16	1.01 ± 0.11	1.05 ± 0.076	0.826 ± 0.096	0.589 ± 0.033	0.526 ± 0.041	1.19 ± 0.11	1.03 ± 0.045	1.11 ± 0.15	0.871 ± 0.14	1.04 ± 0.048	1.08 ± 0.013	0.941 ± 0.052	1.05 ± 0.15
HMLE3 BREAST	0.898 ± 0.036	0.894 ± 0.1	1.02 ± 0.028	0.926 ± 0.09	1.19 ± 0.032	0.988 ± 0.028	0.056 ± 0.0095	0.0347 ± 0.0042	1.04 ± 0.1	1.09 ± 0.074	1.05 ± 0.065	1.07 ± 0.098	1.04 ± 0.041	1.14 ± 0.13	0.992 ± 0.084	0.966 ± 0.046
HCC70 BREAST	0.915 ± 0.055	1.011 ± 0.0081	1.02 ± 0.035	0.973 ± 0.022	0.948 ± 0.11	0.671 ± 0.061	0.251 ± 0.011	0.147 ± 0.015	1.05 ± 0.075	1.1 ± 0.076	1.16 ± 0.069	1.15 ± 0.036	1.05 ± 0.07	1.13 ± 0.044	0.99 ± 0.047	0.941 ± 0.058
G292 BONE	0.971 ± 0.016	0.967 ± 0.055	1 ± 0.086	0.966 ± 0.046	0.932 ± 0.017	0.828 ± 0.013	0.204 ± 0.011	0.146 ± 0.0081	0.973 ± 0.011	1.02 ± 0.052	1.03 ± 0.022	1.03 ± 0.026	1.02 ± 0.029	0.999 ± 0.02	0.967 ± 0.077	0.964 ± 0.015
HCC38 BREAST	1.26 ± 0.26	1.14 ± 0.15	1.3 ± 0.19	1.26 ± 0.081	1.05 ± 0.14	0.862 ± 0.2	0.415 ± 0.03	0.317 ± 0.052	1.03 ± 0.17	0.933 ± 0.042	1 ± 0.35	1.09 ± 0.14	0.873 ± 0.13	0.776 ± 0.097	0.757 ± 0.13	0.794 ± 0.19
HS57T BREAST	0.986 ± 0.077	0.949 ± 0.062	1.07 ± 0.057	1.03 ± 0.042	1.03 ± 0.013	0.813 ± 0.036	0.28 ± 0.02	0.158 ± 0.011	0.975 ± 0.054	1 ± 0.022	1.07 ± 0.074	–	1.03 ± 0.044	1.09 ± 0.044	0.97 ± 0.04	0.933 ± 0.037
